The results in this text go back to patent US9447086B2, “6-amino acid heteroaryldihydropyrimidines for the treatment and prophylaxis of hepatitis B virus infection” (priority 2012, dated 2016).

A short description of data set [1]: Lyophilisation solubility assay (Lysa). Type of data set: physicochemical. The note with it: phosphate buffer, pH 6.5, aqueous buffer, thermodynamic from solid. The method, then:
The aqueous solubility is an important physico-chemical property that plays a significant role in various physical and biological processes. It is desirable to have good solubility which enables good permeability and gastric and intestinal absorption, linear dose proportionality, less PK variability, and easy formulation for PD/PK studies. […] Lyophilisation solubility assay (Lysa) is a well adopted high throughput assay to measure compound solubility in industry.
Samples are prepared in duplicate from 10 mM DMSO stock solutions. After evaporation of DMSO with a centrifugal vacuum evaporator, the residue is solved in 0.05 M phosphate buffer (pH 6.5), stirred for one hour and shaken for two hours. After one night, the solutions is filtered using a microtiter filter plate and the filtrate and its 1/10 dilution are then analyzed by direct UV measurement or by HPLC-UV. […] The results are in μg/mL.

Data set [2] can be described thus: Metabolic stability study in human microsome. Type of data set: in vitro ADME. The protocol: Human Microsomes were preincubated with test compound for 10 min at 37° C. in 100 mM phosphate buffer, pH 7.4. The reactions were initiated by adding NADPH or NADPH regenerating system to give a final incubation volume of 400 μL. For NADPH system, the final incubations contained 1 μM test compound, 0.5 mg/mL liver microsomal protein, 1 mM NADPH in 100 mM phosphate buffer, pH 7.4. For the NADPH regenerating system, the final incubations contained 1 μM test compound, 0.5 mg/mL liver microsomal protein, 3 mM glucose 6-phosphate, 1 mM NADP, 3 mM MgCl2 and 0.05 mg/mL glucose 6-phosphate dehydrogenase in 100 mM phosphate buffer, pH 7.4. After incubation times of 0, 3, 6, 9, 15 and 30 minutes at 37° C., 50 μL samples was removed and transferred to 150 μL methanol solution which was maintained at 4° C. containing 2 μM tolbutamide (internal standard) to terminating the reaction. Following precipitation and centrifugation, the amount of compound remaining in the samples were determined by LC-MS/MS. Controls of no NADPH or NADPH regenerating system at zero and 30 min were also prepared and analyzed.

In brackets after ≈: the same amount, converted by molar mass.

`COC(=O)C1=C(CN2CSCCC2C(=O)O)NC(c2nccs2)=N[C@H]1c1ccc(F)cc1Cl` (stereo partly drawn) [Example 86, 3-[[(4R)-4-(2-Chloro-4-fluoro-phenyl)-5-methoxycarbonyl-2-thiazol-2-yl-1,4-dihydropyrimidin-6-yl]methyl]-1,3-thiazinane-4-carboxylic acid] returned a solubility (thermodynamic) in data set [1] of over 596 µg/mL. The “Human Hepatic Clearance” value in data set [2] came out at 6.8 mL/min/kg. For `CCOC(=O)C1=C(CN2CC(F)(F)C[C@H]2C(=O)O)NC(c2nccs2)=N[C@H]1c1cccc(F)c1Br` [Example 67, (R)-4-(2-Bromo-3-fluoro-phenyl)-6-((S)-2-carboxy-4,4-difluoro-pyrrolidin-1-ylmethyl)-2-thiazol-2-yl-1,4-dihydro-pyrimidine-5-carboxylic acid ethyl ester] the same measures were 590 µg/mL (≈ 1030 µM) and 6.42 mL/min/kg. `COC(=O)C1=C(CN2CCOC[C@H]2C(=O)O)NC(c2nccn2C)=NC1c1ccc(F)cc1Cl` (stereo partly drawn) [Example 13, (S)-4-[6-(2-Chloro-4-fluoro-phenyl)-5-methoxycarbonyl-2-(1-methyl-1H-imidazol-2-yl)-3,6-dihydro-pyrimidin-4-ylmethyl]-morpholine-3-carboxylic acid] registered a solubility (thermodynamic) in data set [1] of 594 µg/mL (≈ 1210 µM). Moreover, in data set [2], the “Human Hepatic Clearance” value was found to be 2.33 mL/min/kg.

`COC(=O)C1=C(CN2CC(F)(F)C[C@H]2C(=O)O)NC(c2nccs2)=N[C@H]1c1cc(F)c(F)cc1Cl` [Example 18, (R)-6-((S)-2-Carboxy-4,4-difluoro-pyrrolidin-1-ylmethyl)-4-(2-chloro-4,5-difluoro-phenyl)-2-thiazol-2-yl-1,4-dihydro-pyrimidine-5-carboxylic acid methyl ester]: in data set [1], the solubility (thermodynamic) is over 659 µg/mL. Further, the “Human Hepatic Clearance” value in data set [2] is recorded as 3.38 mL/min/kg. In turn, `COC(=O)C1=C(CN2CCOC[C@H]2C(=O)O)NC(c2nc(C(F)F)cs2)=N[C@H]1c1ccc(F)cc1Cl` [Example 88, (3S)-4-[[(4R)-4-(2-Chloro-4-fluoro-phenyl)-2-[4-(difluoromethyl)thiazol-2-yl]-5-methoxycarbonyl-1,4-dihydropyrimidin-6-yl]methyl]morpholine-3-carboxylic acid] came in with a thermodynamic solubility in data set [1] of over 665 µg/mL. Besides, the “Human Hepatic Clearance” value in data set [2] amounted to 6.46 mL/min/kg. Turning to `CCOC(=O)C1=C(CN2CCOC[C@H]2C(=O)O)NC(c2nccs2)=N[C@H]1c1ccc(Cl)cc1` [Example 126, (3S)-4-[[(4S)-4-(4-Chlorophenyl)-5-ethoxycarbonyl-2-(1,3-thiazol-2-yl)-1,4-dihydropyrimidin-6-yl]methyl]morpholine-3 carboxylic acid], in data set [2], the “Human Hepatic Clearance” value stood at 0 mL/min/kg.

Take `COC(=O)C1=C(CN2CC(F)(F)C[C@H]2C(=O)O)NC(c2nccs2)=NC1c1ccc(F)cc1Cl` (stereo partly drawn) [Example 1, 6-((S)-2-Carboxy-4,4-difluoro-pyrrolidin-1-ylmethyl)-4-(2-chloro-4-fluoro-phenyl)-2-thiazol-2-yl-1,4-dihydro-pyrimidine-5-carboxylic acid methyl ester]: the “Human Hepatic Clearance” value in data set [2] is on record as 7.51 mL/min/kg.

Regarding `COC(=O)C1=C(CN2CC(F)(F)C[C@H]2C(=O)O)NC(c2cc(C)cs2)=N[C@H]1c1ccc(F)cc1Cl` [Example 27, (R)-6-((S)-2-Carboxy-4,4-difluoro-pyrrolidin-1-ylmethyl)-4-(2-chloro-4-fluoro-phenyl)-2-(4-methyl-thiophen-2-yl)-1,4-dihydro-pyrimidine-5-carboxylic acid methyl ester], in data set [2], the “Human Hepatic Clearance” value is given as 8.79 mL/min/kg. Same read-out and setting: next, `CC(C)(C)OC(=O)C1=C(CN2CCOC[C@H]2C(=O)O)NC(c2nccs2)=N[C@H]1c1ccc(F)cc1Cl` [Example 105, (S)-4-[5-tert-Butoxycarbonyl-6-(2-chloro-4-fluoro-phenyl)-2-thiazol-2-yl-3,6-dihydro-pyrimidin-4-ylmethyl]-morpholine-3-carboxylic acid]: 8.13 mL/min/kg.
